# Laboratory results from patent US20260132141A1, “PROTEIN PHOSPHATASE 2A ACTIVATORS” (University of Florida Research Foundation, Incorporated, priority 2022, published 2026).
# Legend:
# PP2ACα = PP2ACα (Homo sapiens, UniProt P67775); assay: surface plasmon resonance (SPR) binding to catalytic subunit PP2ACα; conditions: no KD could be calculated
# Description: FIGS. 12A-12E depict surface plasmon resonance (SPR) analysis of the binding of PPA24, PPA27, and NSC49L to catalytic subunit, PP2ACα. FIG. 12A depicts surface plasmon resonance (SPR) studies of PPA24 binding to PP2ACα. FIG. 12B depicts surface plasmon resonance (SPR) studies of PPA27 binding to PP2ACα. FIG. 12C depicts the dissociation constant (KD) of PPA24 binding to PP2ACα. FIG. 12D depicts the dissociation constant (KD) of PPA27 binding to PP2ACα. FIG. 12E depicts surface plasmon resonance (SPR) studies of 100 μM of NSC49L binding to PP2ACα.
# Thus, the binding affinity can be in the order of PPA24>PPA27>NSC49L>iHAP1.
# [1] = system: normal keratinocyte (HaCaT) cells; assay: cell viability screen in noncancerous HaCaT cells; assay type: cell-based
# Description: FIGS. 14A-14C depict cell viability screen of PPA24, PPA27, iHAP1, and NSC49L in normal keratinocyte (HaCaT) (FIG. 14A) and epithelial (FHC) (FIG. 14B) cells, where the compounds were able to showcase selectivity to cancerous cells vs. noncancerous cells. FIG. 14C depicts IC50 concentrations of the compounds in the cells. Analyses were done using GraphPad Prism 7.0 Software.
# The compounds PPA24, PPA27, iHAP1, and NSC49L were screened in noncancerous cell lines to observe the selectivity these compounds have towards cancerous cells by assessing the differences in IC50 concentrations.
# PP2ACα, sequence (P67775 whole entry): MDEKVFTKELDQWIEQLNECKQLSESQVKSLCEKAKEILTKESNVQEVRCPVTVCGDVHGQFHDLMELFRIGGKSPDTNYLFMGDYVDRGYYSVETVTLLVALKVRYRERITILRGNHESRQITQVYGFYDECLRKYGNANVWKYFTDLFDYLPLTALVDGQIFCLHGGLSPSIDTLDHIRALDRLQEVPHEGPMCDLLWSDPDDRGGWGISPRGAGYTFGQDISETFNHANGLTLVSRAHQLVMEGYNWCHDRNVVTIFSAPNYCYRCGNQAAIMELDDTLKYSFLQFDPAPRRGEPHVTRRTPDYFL
compound,measurement,setting,value
ClC/C=C/C[N+]12CN3CN(CN(C3)C1)C2.[Cl-] [NSC49L],SPR binding signal to PP2ACα,PP2ACα,only had a binding signal at 100 μM
same,selectivity: cell viability in HaCaT cells versus CRC cells,[1],some selectivity towards cancerous cells
COc1ccc(C(=O)N2c3ccccc3Sc3ccc(Cl)cc32)cc1 [iHAP1],SPR binding signal to PP2ACα,PP2ACα,did not show a clear signal even at high concentrations
same,selectivity: cell viability in HaCaT cells versus CRC cells,[1],do not appear to have a significant difference
